Here are results for two molecules from patent US4857549A, “Antitumor compounds” (priority 1988, dated 1989).

Data set [1] relates to B16 melanoma cells (highly metastatic subline, F10). Briefly: B16 melanoma in vitro cloning (colony forming) assay, 2 hour exposure. To be noted: read-out: IC50: concentration which inhibits cloning efficiency of B16 melanoma cells by 50%. The class given is cell-based. As for the experimental part: Initially, the cytotoxic activity of the Formula (I) and Formula (IA) compounds used in the pharmaceutical compositions and methods of treatment of the instant invention was evaluated in vitro using B16 melanoma cells according to the following assay:
B16 melanoma (highly metastatic subline, F10) are used and maintained as monolayer cultures in Minimal Essential Media (Grand Island Biological Co., Grand Island, N.Y. ) supplemented with 10% calf serum, 1% antibiotics in a 5% CO2 humidified incubator at 37° C. Asynchronous populations of cells are harvested and replated to 5000 cells/plate in sterile 60 mm×15 mm petri plates. Plates are incubated overnight to allow attachment of the cells to the plate. Cells are treated with a Formula (I) or Formula (IA) compound or cisplatin under sterile conditions, allowed to react for 2 hours followed by aspiration of medium. Plates are washed one time with 5 ml of phosphate buffered saline (PBS), followed by the addition of 5 ml of fresh media. Plates are incubated for 5 days at 37° in a CO2 incubator. Viability is measured by the ability of a cell to form a colony of greater than 50 cells. Colonies are fixed with 0.5% crystal violet in 95% ethanol. Plates are dried and counted with a Biotran III Automatic Count Totalizer (New Brunswick Scientific Co., Edison, N.J.). Mean and standard deviation of triplicate samples are determined for each drug concentration. The data are analyzed by plotting the log of the survival fraction (number of colonies in drug treated plates/number of colonies in controls) versus the drug concentration.
^(a) concentration which inhibits cloning efficiency of B16 melanoma
cells by 50% on a 2hour exposure.

The subject of data set [2] is M5076 reticulum cell sarcoma. Briefly: ip M5076 reticulum cell sarcoma assay in mice. The note with it: for MTD (maximally tolerated dose): B6D2F1 female mice; for MTD (maximally tolerated dose) / ILS max (maximum increase in lifespan): ip qD × 10; for ILS max (maximum increase in lifespan): ip M5076 sarcoma mice, slash = separate experiments. On the procedure: Another chemosensitive tumor model is intraperitoneally (ip) implanted M5076 reticulum cell sarcoma in mice. In this system B6D2F1 female mice are inoculated with 0.5 ml of a 10 percent weight:volume (w:v) brei of M5076 prepared from pooled subcutaneous (sc) tumors excised at about 21 days from c57B1/6 donor mice. Drugs are administered ip. Daily treatment is begun 24 hours after implantation and is continued for ten days. The treatment regimen for M5076 is more prolonged than for P388 because of the slower growth rate and longer control survival time of the M5076 tumor.

The nature of data set [3]: ADJ-PC6 plasmacytoma assay. The note with it: mouse, in vivo, ip. As for the experimental part: (§1) Tumor cells are carried by serial sc passage in BALB/c female mice and then collected aseptically on ca. Day 21 and minced in Hank's balanced salt solution. The cells are then dispersed by homogenization in a loose-fitting teflon glass homogenizer, and cell concentration is adjusted to 4×10^6 viable ([…]) cells per ml by hemocytometer counts. A total of 0.5 ml (2×10^6 cells) is implanted sc on the right flank of BALB/c female mice in groups of 8. Treatment is given ip on Days 1-10, and tumors are measured in perpendicular diameters with a vernier caliper on Day 18.
(§2) ^(b) maximally tolerated dose for BALB/c female mice on an ip qD

Data set [4] concerns ADJ-PC6 Plasmacytoma. Briefly: ADJ-PC6 plasmacytoma assay. On the procedure:
as §1, §2

Data set [5] in a line: ip Lewis Lung tumor assay. The class given is in vivo. Set-up: ILS: dose or concentration left out as unconfirmed. To be noted: in vivo; q4D×4 regimen. The text has this:
(§3) The protocol for carrying out this tumor assay is well known to those of skill in the art.

Data set [6] relates to Lewis Lung tumor. As to the kind of experiment: ip Lewis Lung tumor assay. To be noted: at MTD of […] mg/kg, q4D×4 regimen. Set-up: ILS: dose or concentration left out as unconfirmed. The format is in vivo.
Source text: as §3

Data set [7] concerns P388 leukemia.
In data set [8] the test system is cells. The note with it: Struck et al., J. Med. Chem. (1966); cited from earlier work.
The nature of data set [9]: in vivo. To be noted: mouse, ip.
Data set [10] can be described thus: in vivo ip B16 melanoma assay. The note with it: mouse, in vivo, ip.
Procedure: (§4) The cytotoxic activity of several compounds of Formula (I) was evaluated in vivo using B16 melanoma cells according to the following assay:
(§5) In this system, groups of eight B6D2F1 mice are inoculated ip with 0.5 ml of a 10% (w:v) brei of B16 melanoma prepared from pooled sc tumors excised at 14.noteq.21 days from C67B1 /6 donor mice. Daily treatment is begun 24 hours after tumor implantation and is continued daily for 10 days. The route of drug administration is ip. The mice are monitored daily for survival for 60 days. Antitumor activity is assessed by prolongation of median survival time.
For data set [11], the system named is B16 melanoma. As to the kind of experiment: in vivo ip B16 melanoma assay.
Procedure: as §4, §5
Data set [12] can be described thus: sc mammary adenocarcinoma 16/c assay. To be noted: mouse, in vivo.
Procedure: (§6) The mammary adenocarcinoma 16/c tumor is implanted sc in C3H mice, and the Formula (I) compound is administered ip on days 1, 5, 9, 13 and 17. Tumors are measured 3 weeks after implantation, and activity is assessed by degree of tumor growth inhibition.
Data set [13] concerns mammary adenocarcinoma 16/c. Briefly: sc mammary adenocarcinoma 16/c assay.
Procedure: as §6
Data set [14] can be described thus: ip Madison 109 lung carcinoma tumor assay. The note with it: in vivo.
The subject of data set [15] is Madison 109 lung carcinoma. Briefly: ip Madison 109 lung carcinoma tumor assay. To be noted: at MTD of 16 mg/kg, q4D×4 regimen.
Data set [16] relates to human tumor colony forming units. Briefly: human tumor cloning assay (all tumor types). The format is cell-based. As for the experimental part: The cytotoxic activity of Compound No. 2 from TABLE A, namely μ-[1,2-bis(diphenylphosphino)ethane]bis-[chlorogold (I)], was also determined in a human tumor cloning assay. This procedure is described as follows:
[Salmon, et al., N. Engl. J. Med., 298:1321 (1978)].

The test system of data set [17] is Ovary tumor. The note with it: Table 3, Ovary; response = ≤50% survival of tumor colony forming units.
Source text: (§7) Tumor Specimens: Specimens were collected using asceptic technique and transported in medium containing Penicillin, Streptomycin, and Amphotericin B. Specimens which could not be immediately processed were minced into fragments 5 mm^3 or smaller, prior to transport. Effusions were collected with ten units of preservative free heparin per ml of effusion. Specimens were processed to obtain cell suspensions as soon as possible after removal from the patient.
(§8) Culture Methods: A two-layer soft agar culture system was used in these studies. […] Cell counts were performed on a hemacytometer after lysis of erythrocytes in acetic acid. A total of 500,000 nucleated cells were plated in a volume of 1 ml (0.3 percent agar) over 1 ml base layers (0.6 percent agar) in each culture. Cultures were incubated in humidified 37° C. incubators with an atmosphere of 5 percent CO2 in air and control plates monitored for growth using an inverted microscope. At the time of maximum colony formation (7-21 days in culture) final colony counts were obtained with a Bausch and Lomb FAS II image analysis system. Objects presenting a circular profile in two dimensions with a minimum diameter of 60 μm were scored as colonies by the system.
(§9) Drug Treatment: A total of six untreated or vehicle treated cultures were plated for determination of control growth in each experiment. […]
For data set [18], the system named is Breast tumor. To be noted: Table 3, Breast; response = ≤50% survival of tumor colony forming units.
Source text: as §7, §8, §9
In data set [19] the test system is Lung tumor. The note with it: Table 3, Lung; response = ≤50% survival of tumor colony forming units.
Source text: as §7, §8, §9
The subject of data set [20] is Unknown primary tumor. The note with it: Table 3, Unknown primary; response = ≤50% survival of tumor colony forming units.
Source text: as §7, §8, §9
Data set [21] deals with Kidney tumor. The note with it: Table 3, Kidney; response = ≤50% survival of tumor colony forming units.
Source text: as §7, §8, §9
For data set [22], the system named is Corpus uterus tumor. The note with it: Table 3, Corpus uterus; response = ≤50% survival of tumor colony forming units.
Source text: as §7, §8, §9
Data set [23] deals with Melanoma. To be noted: Table 3, Melanoma; response = ≤50% survival of tumor colony forming units.
Source text: as §7, §8, §9
[24] abbreviates: Table 1, ≤30% survival of tumor colony forming units, 10 μg/ml, continuous exposure.
Where [25] appears, read: Table 1, ≤50% survival of tumor colony forming units, 10 μg/ml, continuous exposure.
Setting [26] is: Table 3, all tumor types, response = ≤50% survival of tumor colony forming units.

The structures appear in SMILES notation. Values joined by “and” are separate entries in the source; they are usually repeats but may differ in a detail not shown here. Equal values may be shown once. Read-outs that look alike come from different tables or passages of the source.

By ILS is commonly meant how much longer treated animals lived than controls. For `c1ccc(P(CCP(c2ccccc2)c2ccccc2)c2ccccc2)cc1` [Compound 33, bis(1,2-diphenylphosphino)-ethane], in data set [1] (Mus musculus, B16, Table AI, Formula (IA)), the IC50 was found to be 60 µM. The “MTD (maximally tolerated dose)” value in data set [2] (Table D) was 6 mg/kg. In data set [2] (Table D), the “ILS max (maximum increase in lifespan)” value was 70% and 96% and 68%. In addition, the MTD in [3] was found to be 4 mg/kg; in [4] (one experiment), 6 mg/kg; in [5], 12 mg/kg; in data set [9], 16 mg/kg; in [10] it was 5 mg/kg; in [12] (ip) it was 30 mg/kg. Also, the MTD in data set [12] (iv) is 32 mg/kg; in [14], 16 mg/kg. Further, the tumor growth inhibition in data set [4] (one experiment, at MTD of 6 mg/kg) was determined as 94%; in [4] (second experiment, at MTD of 4 mg/kg) it was 49%. In addition, the ILS in data set [6] was 69%; in data set [11] (at MTD of 5 mg/kg, three separate experiments, listed as Compound No. 2 from Table BI, 5 mg/kg) it was 64% and 49% and 39%; in data set [15], 50%. In addition, the “ILS (maximum increase in lifespan)” value in data set [7] (Table BI, ip P388 leukemia mice, ip days 1-5, slash-separated figures are separate experiments, compound 33: 41 experiments) stood at 98 ± 26%. Further, the alleged cytotoxic activity result in data set [8] was “alleged cytotoxic activity”. Also, the tumor inhibition in data set [13] (iv, at MTD of 32 mg/kg) was 95%.
As to `[Cl][Au][PH](CC[PH]([Au][Cl])(c1ccccc1)c1ccccc1)(c1ccccc1)c1ccccc1` [Compound 2, μ-[1,2-bis(diphenylphosphino)ethane]bis-[chlorogold (I)]], the IC50 in data set [1] (Table A, Formula (I)) worked out at 8 µM. Moreover, the “MTD (maximally tolerated dose)” value in data set [2] (Table C) is reported as 4 mg/kg; in data set [7] (Table B, B6D2F1 female mice, ip qD × 5), 6 mg/kg; in data set [11] (Table E, B6D2F1 mice, ip qD × 10), 5 um/kg; in data set [13] (Table F, C3H mice, intermittent ip regimen), 9 um/kg. The “ILS max (maximum increase in lifespan)” value in data set [2] (Table C, compound 2: seven experiments) is recorded as 76 ± 30%. In data set [2] (in words, based on Tables C and D), the “activity in the ip M5076 reticulum cell sarcoma assay” value was “good activity”. Also, in data set [16] (setting [24]), the “# responses ≤30%/# evaluable” value is recorded as 6/19. In addition, the “responses ≤30% (% of evaluable)” value in [16] (setting [24]) is on record as 32%. The “# responses ≤50%/# evaluable” value in [16] (setting [25]) was 11/19. Besides, the “responses ≤50% (% of evaluable)” value in data set [16] (setting [25]) amounted to 58%. Moreover, the “# responses/# evaluable, TOTALS” value in [16] (setting [26]) was 11/19. Also, the “responses, TOTALS (% of evaluable)” value in data set [16] (setting [26]) was 58%. The “in vitro cytotoxic activity against primary human tumor cells” value in data set [16] (in words) is given as “substantial in vitro cytotoxic activity”. Besides, in data set [4] (Table G, ip days 1-10, tumors measured day 18, slash = separate experiments), the “% Inhibition of tumor growth” value is 96% and 93%. Moreover, in [4] (in words, based on Table G), the “antitumor activity in ADJ-PC6 Plasmacytoma” value is given as “excellent antitumor activity”. For the same molecule, the “# responses/# evaluable” value is reported as 4/6 in data set [17]; 1/3 in data set [18]; 1/3 in [19]; 2/3 in data set [20]; 2/2 in data set [21]; 1/1 in data set [22]. Further, the “# responses/# evaluable” value in [23] was 0/1.
